Test results published in US20070213400A1, “ALCOHOL-METABOLISM ENHANCING COMPOSITION AND INGESTA CONTAINING THE SAME” (Taiyokagaku Co., Ltd., priority 2004, published 2007).

What was measured:
[1] = Ethanol concentration in the blood after ingestion of ethanol (ADH method); assay type: in vivo, CDF1 male mice; conditions: mice; for Ethanol concentration in the blood, Mean: ethanol 3.0 g/kg oral, theanine 100 mg/kg
Protocol: (§1) Ethanol was ingested to CDF1 male mice 3.0 g/weight by kg by oral administration. Theanine was ingested to the abdominal cavity of each mouse once before ingestion of ethanol. Concentration of ethanol in the blood and concentration of lipid peroxide in the liver were measured. GSH concentration was also measured. Furthermore, alcohol dehydrogenase, aldehyde dehydrogenase and enzyme activity of […] were also measured.
The concentration of ethanol in the blood was measured by the following ADH method. 0.1 mL of blood was added to 0.8 mL of 0.33 N perchloric acid. After execution of a vortex process, a centrifugal process was carried out under the condition of 1200 g for 5 minutes. 0.1 mL of supernatant was mixed with 0.1 mL of buffer liquid containing […] of sodium phosphate/semicarbazide buffer liquid (pH8.7) and 0.48 mM of NAD. 0.02 mL of ADH (≧32 IU/mL) was further added to the mixture and incubated at 37° C. for 25 minutes. Thereafter, absorbance was measured at 340 nm. An unknown sample concentration was calculated by the comparison of ethanol concentration with known standard sample data.

[2] = test system: lipid peroxide in the liver; test: Lipid peroxide concentration in the liver after ingestion of ethanol (TBA fluorometry); assay type: in vivo, CDF1 male mice; conditions: mouse liver; for Lipid peroxide concentration, Mean: ethanol 3.0 g/kg oral, theanine
Protocol: as §1
(§2) The lipid peroxide concentration in the liver was measured in the following method (TBA fluorometry). 0.1 mL of liver sample (2% homogenate in physiological salt solution) was added with 0.5 mL of 3% SDS, 1.5 mL of 2.0 M acetic acid buffer liquid (pH3.6), 1.5 mL of 0.8% thiobarbituric acid and 0.4 mL of purified water so that a total amount was 4.0 mL. In a standard sample, 20 μL of 50 μmol/L malondialdehyde (MDA) was added instead of the above liver sample and 0.48 purified water was added. The solution was heat-treated in boiling water for 75 minutes and thereafter, cooled for 5 minutes. 1.0 mL of 0.2 N chloride and 5.0 mL of n-butanol were mixed to the cooled substance and thereafter, shaken for 30 seconds. 1200 g of substance was centrifugally processed for 15 minutes. Supernatant was sampled and fluorometry (excitation wavelength: 515 nm; and fluorescent wavelength: 553 nm) was carried out. The unknown sample was calculated using calibration curve.

[3] = test system: GSH concentration in the liver; test: GSH concentration in the liver after ingestion of ethanol; assay type: in vivo, CDF1 male mice; conditions: mouse liver, % of normal state
Protocol: as §1
(§3) The GSH concentration in the liver was measured by the following method (HiSSIN-Hilf). 5% homogenate of the liver or heart was prepared in a 0.1 M sodium phosphate-0.005 M EDTA buffer liquid (pH 8.0) using a potter type Teflon homogenizer while being iced. 0.25 mL of 25% metaphosphoric acid was added to 0.75 mL of homogenate liquid and mixed well. 10000 g of substance was centrifugally processed for 30 minutes. Thereafter, supernatant was sampled and diluted by 50 times with 0.1 M sodium phosphate-0.005 M EDTA buffer liquid (pH 8.0). To 0.20 mL of the diluted liquid was added 3.6 mL of 0.1 M sodium phosphate-0.005 M EDTA buffer liquid (pH 8.0) and 0.20 mL of 0.1% o-phthalaldehyde (OPT) -methanol liquid. The mixture was left at a room temperature for 5 minutes and thereafter, the fluorometry (excitation wavelength: 350 nm; and fluorescent wavelength: 420 nm) was carried out. The unknown sample was calculated using calibration curve.

alcohol dehydrogenase = test: Liver alcohol dehydrogenase (ADH) activity after ingestion of ethanol; assay type: in vivo, CDF1 male mice; conditions: mouse liver, 3 hours after ingestion of ethanol
Protocol: as §1

cytochrome P2E1 (CYP2E1) = test: Liver CYP2E1 enzyme activity after ingestion of ethanol (HPLC, para-nitrophenol); assay type: in vivo, CDF1 male mice; conditions: mouse liver, 3 hours after ingestion of ethanol
Protocol: as §1

aldehyde dehydrogenase = test: Liver aldehyde dehydrogenase (ALDH) activity after ingestion of ethanol; assay type: in vivo, CDF1 male mice; conditions: mouse liver, 3 hours after ingestion of ethanol
Protocol: as §1

GPT = test: Chronic administration, alcoholic liver injury: GPT in the blood; assay type: in vivo, CDF1 male mice; conditions: mice, ethanol 1.0 or 2.0 g/kg oral twice a day, theanine 100 mg/kg abdominal cavity, ten days (FIG. 6)
Protocol: (§4) Ethanol was ingested to CDF1 male mice (5 weeks old) 1.0 g/kg-weight or 2.0 g/kg-weight by oral administration twice in a day. Theanine was ingested to the abdominal cavity of each mouse 100 mg/kg-weight. After ingestion of ethanol and theanine for ten days, concentrations of GOT, GPT, and γ-GTP in the blood were measured. Concentrations of lipid peroxide and GSH in the liver were measured.
(§5) The concentrations of GOT and […] in the blood were measured by using the […] C-test WAKO (WAKO Pure Chemical Industries, Ltd). The concentration of γ-GTP was measured by using the γ-GTP C-test WAKO (WAKO Pure Chemical Industries, Ltd) Concentrations of lipid peroxide and GSH in the liver were measured by the method written in Embodiment 1.
The concentration of GPT was measured by the following method. 0.02 mL of serum was added to 0.5 mL of GPT-measuring-substrate-buffer and incubated at 37° C. for 5 minutes. Thereafter, 0.5 mL of coloring reagent was added, incubated at 37° C. for 20 minutes. 2.0 mL of stop solution was added to the mixture. Thereafter absorbance was measured at 555 nm. GPT activity (Karmen unit) in the blood was calculated by the comparison of GPT activity with known standard sample data plot.

GSH in the liver = test: Chronic administration, alcoholic liver injury: GSH in the liver; assay type: in vivo, CDF1 male mice; conditions: mice, ethanol 1.0 or 2.0 g/kg oral twice a day, theanine 100 mg/kg abdominal cavity, ten days (FIG. 7)
Protocol: as §3

mice = assay type: in vivo; conditions: oral administration of theanine by 5 g/kg
From the text: Theanine used in the invention has a high security. […] Furthermore, theanine is known as a principal component of deliciousness of tea and used as a food additive for use as gustatory. An amount of theanine to be added is not limited under the Food Sanitation Law. Moreover, differing from conventional medical substances, theanine has no adverse side effect. Consequently, the composition of the invention can be used as a safe and effective alcohol-metabolism enhancing composition.

[4] = test system: lipid peroxide in the liver; test: Chronic administration, alcoholic liver injury: lipid peroxide in the liver; assay type: in vivo, CDF1 male mice; conditions: mice, ethanol 1.0 or 2.0 g/kg oral twice a day, theanine 100 mg/kg abdominal cavity, ten days
Protocol: as §2, with “1.0 mL of 0.2 N chloride and 5.0 mL of n-butanol were mixed to the cooled substance and thereafter, shaken for 30 seconds. 1200 g of substance was centrifugally processed for 15 minutes. Supernatant was sampled and fluorometry (excitation wavelength: 515 nm; and fluorescent wavelength: 553 nm) was carried out.” left out
as §4, with “Theanine was ingested to the abdominal cavity of each mouse 100 mg/kg-weight.” left out
as §5

Q: Which “Ethanol concentration in the blood, Mean” value ([1]; time 0 h) does the source give for `CCO` [Ethanol] here?
A: 0 mg/mL

Q: What about the “Ethanol concentration in the blood, Mean” value ([1]; time 0.5 h) of the same compound?
A: 0.498 mg/mL

Q: What about the “Ethanol concentration in the blood, Mean” value ([1]; time 1 h) of the same compound?
A: 0.108 mg/mL

Q: What about the “Ethanol concentration in the blood, Mean” value ([1]; time 3 h) of the same compound?
A: 0.022 mg/mL

Q: What about the “Lipid peroxide concentration, Mean” value ([2]; time 0 h) of the same compound?
A: 0.617 mg/mL

Q: And the “Lipid peroxide concentration, Mean” value ([2]; time 0.5 h)?
A: 0.573 mg/mL

Q: And the “Lipid peroxide concentration, Mean” value ([2]; time 1 h)?
A: 0.565 mg/mL

Q: What about the “Lipid peroxide concentration, Mean” value ([2]; time 2 h) of the same compound?
A: 0.580 mg/mL

Q: What about the “Lipid peroxide concentration, Mean” value ([2]; time 3 h) of the same compound?
A: 1.036 mg/mL

Q: What about the “Lipid peroxide concentration, Mean” value ([2]; time 5 h) of the same compound?
A: 0.568 mg/mL

Q: And the “lipid peroxide” value ([2]; only ethanol ingested, peak value (3 h in Table 2))?
A: 1.036 u mol/g protein

Q: And the “Lipid peroxide concentration (%) of the value in the normal state” value (shortened to “Lipid peroxide concentration (%)”) ([2]; time 0 h)?
A: 100%

Q: What about the “Lipid peroxide concentration (%)” value ([2]; time 0.5 h) of the same compound?
A: 93%

Q: And the “Lipid peroxide concentration (%)” value ([2]; time 1 h)?
A: 92%

Q: And the “Lipid peroxide concentration (%)” value ([2]; time 2 h)?
A: 94%

Q: And the “Lipid peroxide concentration (%)” value ([2]; time 3 h)?
A: 168%

Q: What about the “Lipid peroxide concentration (%)” value ([2]; time 5 h) of the same compound?
A: 92%

Q: What about the “GSH concentration (%), Mean” value ([3]; time 0 h) of the same compound?
A: 100.00%

Q: And the “GSH concentration (%), Mean” value ([3]; time 0.5 h)?
A: 79.84%

Q: What about the “GSH concentration (%), Mean” value ([3]; time 1 h) of the same compound?
A: 78.83%

Q: What about the “GSH concentration (%), Mean” value ([3]; time 2 h) of the same compound?
A: 81.57%

Q: What about the “GSH concentration (%), Mean” value ([3]; time 3 h) of the same compound?
A: 75.96%

Q: And the “GSH concentration (%), Mean” value ([3]; time 5 h)?
A: 65.50%

Q: And the “GSH concentration (%), Mean” value ([3]; time 5 h, listed as ethanol)?
A: 65.5%

Q: And the “ADH activity as compared with control (normal state)” value (alcohol dehydrogenase)?
A: about 123%

Q: What about the “ADH activity, Mean” value (alcohol dehydrogenase) of the same compound?
A: 9.13 μmol/min · mg protein

Q: And the “CYP2E1 activity, Mean” value (cytochrome P2E1 (CYP2E1))?
A: 20.4 nmol/mg protein/min

Q: What about the “ALDH activity as compared with control” value (aldehyde dehydrogenase) of the same compound?
A: about 63.5%

Q: And the “ALDH activity, Mean” value (aldehyde dehydrogenase)?
A: 5.80 μmol/min · mg protein

Q: What about the “GPT concentrations in the blood” value (GPT) of the same compound?
A: increased

Q: And the “GSH concentrations in the liver” value (GSH in the liver)?
A: decreased

Q: What does the source list for `CCNC(=O)CC[C@H](N)C(=O)O` [Theanine, theanine]?
A: AUC0-3 hr of blood ethanol reduced by joint use of theanine as compared with only ethanol ([1]; ethanol 3.0 g/kg, theanine 100 mg/kg 30 minutes after ethanol): 76%; Mortality in acute toxicity test (mice): no mice died; GPT concentrations in the blood (GPT): increase of the GPT concentrations could be reduced; lipid peroxide in the liver [4]: increase of lipid peroxide in the liver would be reduced; GSH concentrations in the liver (GSH in the liver): decrease of the GSH could be reduced
